Experimental data: US20230391792A1, “METHODS AND COMPOSITIONS FOR TARGETED PROTEIN DEGRADATION” (Ranok Therapeutics (Hangzhou) Co. Ltd., priority 2020, published 2023)

Target: T1, HSP90α protein (N-terminal) (Homo sapiens, UniProt P07900)
T1 construct: purchased BPS Bioscience #50298
Assay: HSP90α-binding fluorescent polarization (FP) assay, competition with BODIPY-labeled RNK04010
Conditions: probe RNK04010 (BODIPY-labeled) 5 nM, 25° C. 300 min
Protocol: (§1) Binding of test compounds to HSP90α protein was measured by fluorescent polarization (FP) using the HSP90α (N-terminal) Assay Kit (BPS Bioscience, #50298), following the manufacturer's instructions, except as noted. Fluorescently labeled HSP90-binding compounds, either the provided FITC-geldanamycin (5 nM final concentration) or RNK04010, a triazolone-based HSP90-binding small molecule labeled with BODIPY through a piperizine-phenyl linker (5 nM final concentration) were employed. A 2.5-fold serial dilution of each test compound ranging from 20 μM to 5.2 nM was assayed for binding to HSP90α. After the final step of adding HSP90α protein to each assay well, plates were mixed by brief shaking, incubated at 25° C. for 120 min for FITC-geldanamycin or 300 min for RNK04010, and fluorescence was measured using a PerkinElmer EnVision Plate Reader.
(§2) HSP90α-binding fluorescent polarization (FP) assays measuring competition with the fluorescently labeled HSP90 binders, FITC-geldanamycin or RNK04010 (BODIPY-labeled), were applied to assess the binding capabilities of CHAMP molecules to HSP90.

Row | SMILES | IC50
1 | Cc1sc2c(c1C)C(c1ccc(Cl)cc1)=NC(CC(=O)N1CCC(CN3CCN(Cc4ccc(-n5c(O)nnc5-c5cc(C(C)C)c(O)cc5O)cc4)CC3)CC1)c1nnc(C)n1-2 (stereo not shown) [Compound 1] | 100 to 1000 nM
2 | CCOc1cc(N2CCC(C(=O)NCc3ccc(CN4CCC(Cc5ccc(-n6c(C(=O)NC(C)C)nnc6-c6cc(C(C)C)c(O)cc6O)cc5)CC4)cc3)CC2)ccc1Nc1ncc2c(n1)N(C)c1ccccc1C(=O)N2C [Compound 130] | 100 to 1000 nM
3 | COc1cccc(-c2cc(C(=O)Nc3ccc(-c4ccc(OC5CCN(C(=O)C[C@@H]6N=C(c7ccc(Cl)cc7)c7c(sc(C)c7C)-n7c(C)nnc76)CC5)cc4O)cc3)ccc2OC)c1 [Compound 131] | > 1000 nM
4 | CCOc1cc(N2CCC(C(=O)N3CCC(COc4ccc(Nc5cc(-n6nc(C(F)(F)F)c7c6CC(C)(C)CC7=O)ccc5C(N)=O)cc4)CC3)CC2)ccc1Nc1ncc2c(n1)N(C)c1ccccc1C(=O)N2C [Compound 159] | > 1000 nM
5 | Cc1sc2c(c1C)C(c1ccc(Cl)cc1)=N[C@@H](CC(=O)NCCOCCOCCOCCOc1ccc(Nc3cc(-n4nc(C(F)(F)F)c5c4CC(C)(C)CC5=O)ccc3C(N)=O)cc1)c1nnc(C)n1-2 [Compound 162] | > 1000 nM
6 | CC[C@@H](C)Nc1cc(C(=O)NC2CC3CCC(C2)N3c2ccc(C(=O)c3ccc(CN4CCN(CC5CCN(C(=O)C[C@@H]6N=C(c7ccc(Cl)cc7)c7c(sc(C)c7C)-n7c(C)nnc76)CC5)CC4)cc3)cn2)c(C)cc1C(N)=O (stereo partly shown) [Compound 165] | > 1000 nM

Second part, the compound after the results:

Row | IC50 | SMILES
7 | 100 to 1000 nM | CCCc1cc(-c2nnc(O)n2-c2ccc(CN3CCN(C(=O)C4CCN(c5ccc(Nc6ncc7c(n6)N(C)c6ccccc6C(=O)N7C)c(OCC)c5)CC4)CC3)cc2)c(O)cc1O [Compound 128]
8 | > 1000 nM | COc1cccc(-c2cc(C(=O)Nc3ccc(-c4ccc(OC5CCN(C(=O)CNC(=O)N[C@@H]6N=C(c7ccc(Cl)cc7)c7c(sc(C)c7C)-n7c(C)nnc76)CC5)cc4O)cc3)ccc2OC)c1 [Compound 132]
9 | > 1000 nM | COc1cccc(-c2cc(C(=O)Nc3ccc(-c4ccc(OC5CCN(C)CC5)cc4COCN(C)CC[C@@H]4N=C(c5ccc(Cl)cc5)c5c(sc(C)c5C)-n5c(C)nnc54)cc3)ccc2OC)c1 [Compound 133]
10 | 100 to 1000 nM | CCOc1cc(N2CCC(C(=O)N3CCN(CCOc4ccc(Nc5cc(-n6nc(C(F)(F)F)c7c6CC(C)(C)CC7=O)ccc5C(N)=O)cc4)CC3)CC2)ccc1Nc1ncc2c(n1)N(C)c1ccccc1C(=O)N2C [Compound 149]
11 | > 1000 nM | CCOc1cc(N2CCC(C(=O)NCCCNC(=O)O[C@H]3CC[C@H](Nc4cc(-n5nc(C(F)(F)F)c6c5CC(C)(C)CC6=O)ccc4C(N)=O)CC3)CC2)ccc1Nc1ncc2c(n1)N(C)c1ccccc1C(=O)N2C [Compound 150]
12 | > 1000 nM | CCOc1cc(N2CCC(C(=O)NCCOCCNC(=O)O[C@H]3CC[C@H](Cc4cc(-n5nc(C)c6c5CC(C)(C)CC6=O)ccc4C(N)=O)CC3)CC2)ccc1N(CC)c1ncc2c(n1)N(C)c1ccccc1C(=O)N2C [Compound 151]
13 | > 1000 nM | CCOc1cc(N2CCC(C(=O)N3CCN(C(=O)O[C@H]4CC[C@H](Nc5cc(-n6nc(C(F)(F)F)c7c6CC(C)(C)CC7=O)ccc5C(N)=O)CC4)CC3)CC2)ccc1Nc1ncc2c(n1)N(C)c1ccccc1C(=O)N2C [Compound 152]
14 | > 1000 nM | Cc1sc2c(c1C)C(c1ccc(Cl)cc1)=N[C@@H](CC(=O)NCCOCCNC(=O)O[C@H]1CC[C@H](Nc3cc(-n4nc(C(F)(F)F)c5c4CC(C)(C)CC5=O)ccc3C#N)CC1)c1nnc(C)n1-2 [Compound 154]
15 | > 1000 nM | Cc1sc2c(c1C)C(c1ccc(Cl)cc1)=N[C@@H](CC(=O)NCCOCCN[C@@H](C)C(=O)N[C@H](C(=O)N1CCC[C@H]1C(=O)Nc1snnc1-c1ccccc1)C1CCCCC1)c1nnc(C)n1-2 [Compound 167]

Target: T1, HSP90α protein (N-terminal)
Assay: HSP90α-binding fluorescent polarization (FP) assay, competition with FITC-geldanamycin
Conditions: probe FITC-geldanamycin 5 nM, 25° C. 120 min
Protocol: as §1, §2

Row | SMILES | IC50
16 | Cc1sc2c(c1C)C(c1ccc(Cl)cc1)=NC(CC(=O)N1CCC(CN3CCN(Cc4ccc(-n5c(O)nnc5-c5cc(C(C)C)c(O)cc5O)cc4)CC3)CC1)c1nnc(C)n1-2 (stereo not shown) [Compound 1] | 100 to 1000 nM
17 | Cc1sc2c(c1C)C(c1ccc(Cl)cc1)=N[C@@H](CC(=O)NCCOCCN1CCC(Cc3ccc(-n4c(O)nnc4-c4cc(C(C)C)c(O)cc4O)cc3)CC1)c1nnc(C)n1-2 [Compound 9] | 100 to 1000 nM
18 | Cc1sc2c(c1C)C(c1ccc(Cl)cc1)=N[C@@H](CC(=O)N1CCC(CCN3CCN(c4ccc(-n5c(O)nnc5-c5cc(C(C)C)c(O)cc5O)cc4)CC3)CC1)c1nnc(C)n1-2 [Compound 28] | 100 to 1000 nM
19 | Cc1sc2c(c1C)C(c1ccc(Cl)cc1)=N[C@@H](CC(=O)N[C@@H](C)c1ccc(CN3CCN(Cc4ccc(-n5c(O)nnc5-c5cc(C(C)C)c(O)cc5O)cc4)CC3)cc1)c1nnc(C)n1-2 [Compound 38] | 100 to 1000 nM
20 | Cc1cc(-c2nnc(O)n2-c2ccc(CN3CCN(CC4CCN(C(=O)C[C@@H]5N=C(c6ccc(Cl)cc6)c6c(sc(C)c6C)-n6c(C)nnc65)CC4)CC3)c(F)c2)c(O)cc1O [Compound 54] | 100 to 1000 nM
21 | CCc1cc(-c2nnc(O)n2-c2ccc(CN3CCC(C(=O)N4CCC(Nc5ncc(NC(=O)c6cc(C(=O)c7c(Cl)ccc(Cl)c7F)c[nH]6)cn5)CC4)CC3)cc2)c(O)cc1O [Compound 116] | 100 to 1000 nM
22 | CCOc1cc(N2CCC(C(=O)NCCOCCOCCOc3ccc(Nc4cc(-n5nc(C(F)(F)F)c6c5CC(C)(C)CC6=O)ccc4C(N)=O)cc3)CC2)ccc1Nc1ncc2c(n1)N(C)c1ccccc1C(=O)N2C [Compound 161] | > 1000 nM
23 | CCn1c(=O)/c(=C2\Sc3ccccc3N2C)s/c1=C\c1cccc[n+]1CCCCCCNC(=O)C[C@@H]1N=C(c2ccc(Cl)cc2)c2c(sc(C)c2C)-n2c(C)nnc21 [Compound 163] | > 1000 nM
24 | CC[C@@H](C)Nc1cc(C(=O)NC2CC3CCC(C2)N3c2ccc(C(=O)c3ccc(CN4CCN(CC5CCN(C(=O)C[C@@H]6N=C(c7ccc(Cl)cc7)c7c(sc(C)c7C)-n7c(C)nnc76)CC5)CC4)cc3)cn2)c(C)cc1C(N)=O (stereo partly shown) [Compound 165] | > 1000 nM

Other lines, results leading:

Row | IC50 | SMILES
25 | 100 to 1000 nM | Cc1sc2c(c1C)C(c1ccc(Cl)cc1)=N[C@@H](CC(=O)NCCOc1ccccc1CN(C)Cc1ccc(-n3c(O)nnc3-c3cc(C(C)C)c(O)cc3O)cc1)c1nnc(C)n1-2 [Compound 14]
26 | 100 to 1000 nM | Cc1sc2c(c1C)C(c1ccc(Cl)cc1)=N[C@@H](CC(=O)NCCOc1ccc(CN(C)Cc3ccc(-n4c(O)nnc4-c4cc(C(C)C)c(O)cc4O)cc3)cc1)c1nnc(C)n1-2 [Compound 21]
27 | 100 to 1000 nM | Cc1sc2c(c1C)C(c1ccc(Cl)cc1)=N[C@@H](CC(=O)NCC(=O)NCCOc1ccc(-n3c(O)nnc3-c3cc(C(C)C)c(O)cc3O)cc1)c1nnc(C)n1-2 [Compound 24]
28 | 100 to 1000 nM | Cc1sc2c(c1C)C(c1ccc(Cl)cc1)=N[C@@H](CCNCc1ccc(-n3c(O)nnc3-c3cc(C(C)C)c(O)cc3O)cc1)c1nnc(C)n1-2 [Compound 31]
29 | < 100 nM | CCc1cc(-c2nnc(O)n2-c2ccc(CN3CCN(CC4CCN(C(=O)C[C@@H]5N=C(c6ccc(Cl)cc6)c6c(sc(C)c6C)-n6c(C)nnc65)CC4)CC3)cc2)c(O)cc1O [Compound 41]
30 | 100 to 1000 nM | Cc1sc2c(c1C)C(c1ccc(Cl)cc1)=N[C@@H](CC(=O)N[C@@H](C)c1ccc(CN3CCC(Cc4ccc(-n5c(O)nnc5-c5cc(C(C)C)c(O)cc5O)cc4)CC3)cc1)c1nnc(C)n1-2 [Compound 44]
31 | 100 to 1000 nM | CCc1cc(-c2nnc(O)n2-c2ccc(CN3CCN(CC4CCN(C(=O)C[C@@H]5N=C(c6ccc(Cl)cc6)c6c(sc(C)c6C)-n6c(C)nnc65)CC4)CC3)c(F)c2)c(O)cc1O [Compound 53]
32 | 100 to 1000 nM | CCOc1cc(N2CCC(C(=O)NCOCCN3CCC(Cc4ccc(-n5c(O)nnc5-c5cc(C(C)C)c(O)cc5O)cc4)CC3)CC2)ccc1Nc1ncc2c(n1)N(C)c1ccccc1C(=O)N2C [Compound 111]
33 | 100 to 1000 nM | CCOc1cc(N2CCC(C(=O)NCCOCCOc3ccc(-n4c(O)nnc4-c4cc(CC)c(O)cc4O)cc3)CC2)ccc1Nc1ncc2c(n1)N(C)c1ccccc1C(=O)N2C [Compound 112]
34 | > 1000 nM | CC[C@@H](C)Nc1cc(C(=O)NC2CC3CCC(C2)N3c2ccc(C(=O)Nc3ccc(CN4CCN(CC5CCN(C(=O)C[C@@H]6N=C(c7ccc(Cl)cc7)c7c(sc(C)c7C)-n7c(C)nnc76)CC5)CC4)cc3)cn2)ccc1C(N)=O (stereo partly shown) [Compound 166]
